Earlier results as cited in US20090182024A1, “EXTENDED RELEASE TABLET FORMULATION CONTAINING PRAMIPEXOLE OR A PHARMACEUTICALLY ACCEPTABLE SALT THEREOF” (BOEHRINGER INGELHEIM INTERNATIONAL GMBH, priority 2004, published 2009).
Counter-ions that a name gives are not always drawn.

Assays:
[1] = in vivo
[2] = not given; remark: listed apart in the source

solubility in buffer media (between pH 2 and pH 7.4) | Water solubility (water) | kinetics [1] | stability in solution ([2]; in solution) | stability in the solid state ([2]; solid state) | SMILES
above 10 mg/mL | more than 20 mg/mL | – | – | – | CCCN[C@H]1CCc2nc(N)sc2C1 [Pramipexole dihydrochloride monohydrate, pramipexole dihydrochloride monohydrate]
– | – | linear kinetics | light sensitive | very stable | CCCN[C@H]1CCc2nc(N)sc2C1 [Pramipexole, (S)-2-amino-4,5,6,7-tetrahydro-6-(propylamino)benzothiazole]
